Reference: US5488051A, “Substituted 5,6-dihydro-5-oxo-1,4-dithiino-(2,3-d)-pyridazine-2,3-dicarbonitriles, compositions containing them and their use as antimicrobials” (The Dow Chemical Company, priority 1994, dated 1996)
Converted amounts (≈) assume the structure as drawn. Where two headings read alike, the source gives them in different places.

How the values were obtained:
[1] = system: Klebsiella pneumonias (Kp); assay: MIC for Klebsiella pneumonias, nutrient agar; assay type: cell-based, Klebsiella pneumonias ATCC 8308; conditions: 30° C., 48 hours, read-out: Minimum Inhibitory Concentration (MIC), Kp
Description: (§1) The minimum inhibitory concentration (MIC) for the compounds listed in Table I is determined for 9 bacteria, using nutrient agar; and 7 yeast and fungi, using malt yeast agar. A one percent solution of the test compound is prepared in a mixture of acetone and water.
(§2) Nutrient agar is prepared at pH 6.8, representing a neutral medium, and at pH 8.2, representing an alkaline medium. The nutrient agars are prepared by adding 23 g of nutrient agar to one-liter of deionized water. In addition, the alkaline medium is prepared by adjusting a 0.04M solution of N-[tris-(hydroxymethyl)methyl]-glycine buffered deionized water with concentrated sodium hydroxide to a pH of 8.5.
(§3) The test tubes containing the malt yeast agar and the nutrient agar are cooled in a water bath until the temperature of the agar is 48° C. Then, an appropriate amount of the one percent solution of the test compound is added (except in the controls where no compound is added) to the respective test tubes so that the final concentrations are zero (0), 1.0, 2.5, 5, 10, 25, 50, 100, 250 and 500 parts per million of the test compound in each of the respective type of agar. The contents of each of the test tubes are then transferred to separate petri plates. After drying for 24 hours, the petri plates containing nutrient agar are inoculated with bacteria and those containing malt yeast agar are inoculated with yeast and fungi.
(§4) The inoculation with bacteria is accomplished by using the following procedure. Twenty-four hour-cultures of each of the bacteria are prepared by incubating the respective bacteria in tubes containing nutrient broth for 24 hours at 30° C. in a shaker. Dilutions of each of the 24 hour-cultures are made so that nine separate suspensions (one for each of the nine test bacteria) are made, each containing 10^8 colony forming units (CFU) per mL of suspension of a particular bacteria. Aliquots of 0.3 mL of each of the bacterial suspensions are used to fill the individual wells of Steer's Replicator. For each microbial suspension, 0.3 mL was used to fill three wells (i.e., three wells of 0.3 mL each) so that for the nine different bacteria, 27 wells are filled. The Steer's Replicator is then used to inoculate both the neutral and alkaline pH nutrient agar petri plates.
(§5) The inoculated petri plates are incubated at 30° C. for 48 hours and then read to determine if the test compound which is incorporated into the agar prevented growth of the respective bacteria.
(§6) Table II list the bacteria, yeast and fungi used in the MIC test described above along with their respective American Type Culture Collection (ATCC) identification numbers.

Proteus vulgaris (Pv) = assay: MIC for Proteus vulgaris, nutrient agar; assay type: cell-based, Proteus vulgaris ATCC 881; conditions: 30° C., 48 hours, read-out: Minimum Inhibitory Concentration (MIC), Pv
Description: as §1, §2, §3, §4, §5, §6

[2] = system: Pseudomonas aeruginosa (Pa); assay: MIC for Pseudomonas aeruginosa, nutrient agar; assay type: cell-based, Pseudomonas aeruginosa ATCC 10145; conditions: 48 hours, read-out: Minimum Inhibitory Concentration (MIC), Pa
Description: as §1, §2, §3, §4, §5, §6

Salmonella choleraesuis = assay: MIC for Salmonella choleraesuis, nutrient agar; assay type: cell-based, Salmonella choleraesuis ATCC 10708; conditions: Salmonella enterica, 30° C., 48 hours, read-out: Minimum Inhibitory Concentration (MIC), SC
Description: as §1, §2, §3, §4, §5, §6

Saccharomyces cerevisiae = assay: MIC for Saccharomyces cerevisiae, malt yeast agar; assay type: cell-based, Saccharomyces cerevisiae ATCC 4105; conditions: malt yeast agar, 30° C., 48 hours for yeast, read-out: Minimum Inhibitory Concentration (MIC), Sc
Description: as §1
(§7) Malt yeast agar is prepared by adding 3 g yeast extract and 45 g malt agar per liter of deionized water. The specific agar is dispensed in 30 mL aliquots into 25×200 mm test tubes, capped and autoclaved for 15 minutes at 115° C.
as §3
(§8) The inoculation with the yeast and fungi is accomplished as follows. Cultures of yeast and fungi are incubated for seven days on malt yeast agar at 30° C. These cultures are used to prepare suspensions by the following procedure. A suspension of each organism is prepared by adding 10 mL of sterile saline and 10 microliters of octylphenoxy polyethoxy ethanol to the agar slant of yeast or fungi. The sterile saline/octylphenoxy polyethoxy ethanol solution is then agitated with a sterile swab to suspend the microorganism grown on the slant. Each resulting suspension is diluted into sterile saline (1 part suspension: 9 parts sterile saline). Aliquots of these dilutions are placed in individual wells of Steer's Replicator and petri plates inoculated as previously described. The petri plates are incubated at 30° C. and read after 48 hours for yeast and 72 hours for fungi.
as §6

Escherichia coli (Ec) = assay: MIC for Escherichia coli, nutrient agar; assay type: cell-based, Escherichia coli ATCC 11229; conditions: 30° C., 48 hours, read-out: Minimum Inhibitory Concentration (MIC), Ec
Description: as §1, §2, §3, §4, §5, §6

[3] = system: Staphylococcus aureus (Sa); assay: MIC for Staphylococcus aureus, nutrient agar; assay type: cell-based, Staphylococcus aureus ATCC 6538; conditions: 30° C., 48 hours, read-out: Minimum Inhibitory Concentration (MIC), Sa
Description: as §1, §2, §3, §4, §5, §6

Bacillus subtilis (Bs) = assay: MIC for Bacillus subtilis, nutrient agar; assay type: cell-based, Bacillus subtilis ATCC 8473; conditions: 30° C., 48 hours, read-out: Minimum Inhibitory Concentration (MIC), Bs
Description: as §1, §2, §3, §4, §5, §6

[4] = system: Penicillium chrysogenum (Pc); assay: MIC for Penicillium chrysogenum, malt yeast agar; assay type: cell-based, Penicillium chrysogenum ATCC 9480; conditions: malt yeast agar; 30° C., 72 hours for fungi; read-out: Minimum Inhibitory Concentration (MIC), PC
Description: as §1, §7, §3, §8, §6

Trichoderma viride (Tv) = assay: MIC for Trichoderma viride, malt yeast agar; assay type: cell-based, Trichoderma viride ATCC 8678; conditions: malt yeast agar; 30° C., 72 hours for fungi; read-out: Minimum Inhibitory Concentration (MIC), Tv
Description: as §1, §7, §3, §8, §6

[5] = system: Enterobacter aerogenes (Ea); assay: MIC for Enterobacter aerogenes, nutrient agar; assay type: cell-based, Enterobacter aerogenes ATCC 13048; conditions: Klebsiella aerogenes, nutrient agar, 30° C., 48 hours, read-out: Minimum Inhibitory Concentration (MIC), Ea
Description: as §1, §2, §3, §4, §5, §6

Fusarium oxysporum (Fo) = assay: MIC for Fusarium oxysporum, malt yeast agar; assay type: cell-based, Fusarium oxysporum ATCC 48112; conditions: malt yeast agar; 30° C., 72 hours for fungi; read-out: Minimum Inhibitory Concentration (MIC), Fo
Description: as §1, §7, §3, §8, §6

Aspergillus niger (An) = assay: MIC for Aspergillus niger, malt yeast agar; assay type: cell-based, Aspergillus niger ATCC 16404; conditions: malt yeast agar; 30° C., 72 hours for fungi; read-out: Minimum Inhibitory Concentration (MIC), An
Description: as §1, §7, §3, §8, §6

[6] = system: Pseudomonas aeruginosa (PRD-10); assay: MIC for Pseudomonas aeruginosa PRD-10, nutrient agar; assay type: cell-based, Pseudomonas aeruginosa ATCC 15442; conditions: 30° C., 48 hours, read-out: Minimum Inhibitory Concentration (MIC), PRD
Description: as §1, §2, §3, §4, §5, §6

[7] = system: Aureobasidium pullulan (Ap); assay: MIC for Aureobasidium pullulan, malt yeast agar; assay type: cell-based, Aureobasidium pullulan ATCC 16622; conditions: malt yeast agar; 30° C.; 48 hours for yeast and 72 hours for fungi; read-out: Minimum Inhibitory Concentration (MIC), Ap
Description: as §1, §7, §3, §8, §6

Candida albicans (Ca) = assay: MIC for Candida albicans, malt yeast agar; assay type: cell-based, Candida albicans ATCC 10231; conditions: malt yeast agar; 30° C., 48 hours for yeast; read-out: Minimum Inhibitory Concentration (MIC), Ca
Description: as §1, §7, §3, §8, §6

| SMILES | MIC ([1]; pH 6.8, nutrient agar) [µg/mL] | MIC ([1]; pH 8.2, nutrient agar) [µg/mL] | MIC (Proteus vulgaris (Pv); pH 6.8, nutrient agar) [µg/mL] | MIC (Proteus vulgaris (Pv); pH 8.2, nutrient agar) [µg/mL] | MIC ([2]; pH 6.8, 30° C.) [µg/mL] | MIC ([2]; pH 8.2, 30° C.) [µg/mL] | MIC (Salmonella choleraesuis; pH 6.8, nutrient agar) [µg/mL] | MIC (Salmonella choleraesuis; pH 8.2, nutrient agar) [µg/mL] | MIC (Saccharomyces cerevisiae) [µg/mL] | MIC (Escherichia coli (Ec); pH 6.8, nutrient agar) [µg/mL] | MIC (Escherichia coli (Ec); pH 8.2, nutrient agar) [µg/mL] | MIC ([3]; pH 6.8, nutrient agar) [µg/mL] | MIC ([3]; pH 8.2, nutrient agar) [µg/mL] | MIC (Bacillus subtilis (Bs); pH 6.8, nutrient agar) [µg/mL] | MIC (Bacillus subtilis (Bs); pH 8.2, nutrient agar) [µg/mL] | MIC [4] [µg/mL] | MIC (Trichoderma viride (Tv)) [µg/mL] | MIC ([5]; pH 6.8) [µg/mL] | MIC ([5]; pH 8.2) [µg/mL] | MIC (Fusarium oxysporum (Fo)) [µg/mL] | further results |
| --- | --- | --- | --- | --- | --- | --- | --- | --- | --- | --- | --- | --- | --- | --- | --- | --- | --- | --- | --- | --- | --- |
| N#CC1=C(C#N)Sc2c(cnn(-c3ccccc3)c2=O)S1 [A, 5,6-Dihydro-5-oxo-6-phenyl-1,4-dithiino(2,3-d)pyridazine-2,3-dicarbonitrile] | 50 (≈ 161 µM) | > 500 | 50 (≈ 161 µM) | > 500 | 250 (≈ 806 µM) | > 500 | 100 (≈ 322 µM) | > 500 | < 10 | 50 (≈ 161 µM) | > 500 | 25 (≈ 80.6 µM) | < 10 | 50 (≈ 161 µM) | 500 (≈ 1610 µM) | 25 (≈ 80.6 µM) | 25 (≈ 80.6 µM) | 250 (≈ 806 µM) | > 500 | 25 (≈ 80.6 µM) | MIC (Aspergillus niger (An)): 25 µg/mL (≈ 80.6 µM); MIC ([6]; pH 6.8, nutrient agar): 500 µg/mL (≈ 1610 µM); MIC ([6]; pH 8.2, nutrient agar): > 500 µg/mL; MIC [7]: 25 µg/mL (≈ 80.6 µM); MIC (Candida albicans (Ca)): 25 µg/mL (≈ 80.6 µM) |
| N#CC1=C(C#N)Sc2c(cnn(-c3ccc(Cl)cc3)c2=O)S1 [D, 5,6-dihydro-6-(4-chlorophenyl)-5-oxo-1,4-dithiino-(2,3-d)-pyridazine-2,3-dicarbonitrile] | > 500 | > 500 | 100 (≈ 290 µM) | > 500 | > 500 | > 500 | 100 (≈ 290 µM) | > 500 | 10 (≈ 29 µM) | 100 (≈ 290 µM) | > 500 | > 500 | > 500 | 25 (≈ 72.5 µM) | 250 (≈ 725 µM) | 25 (≈ 72.5 µM) | 25 (≈ 72.5 µM) | > 500 | > 500 | 10 (≈ 29 µM) | MIC (Aspergillus niger (An)): 10 µg/mL (≈ 29 µM); MIC ([6]; pH 6.8, nutrient agar): 500 µg/mL (≈ 1450 µM); MIC ([6]; pH 8.2, nutrient agar): > 500 µg/mL; MIC [7]: 10 µg/mL (≈ 29 µM); MIC (Candida albicans (Ca)): 10 µg/mL (≈ 29 µM) |
| N#CC1=C(C#N)Sc2c(cnn(-c3cccc(Cl)c3)c2=O)S1 [E, 5,6-dihydro-6-(3-chlorophenyl)-5-oxo-1,4-dithiino-(2,3-d)-pyridazine-2,3-dicarbonitrile] | > 500 | > 500 | 500 (≈ 1450 µM) | > 500 | > 500 | > 500 | > 500 | > 500 | 25 (≈ 72.5 µM) | 500 (≈ 1450 µM) | > 500 | 250 (≈ 725 µM) | > 500 | 25 (≈ 72.5 µM) | 250 (≈ 725 µM) | 25 (≈ 72.5 µM) | 100 (≈ 290 µM) | > 500 | > 500 | 50 (≈ 145 µM) | MIC (Aspergillus niger (An)): 50 µg/mL (≈ 145 µM); MIC ([6]; pH 6.8, nutrient agar): > 500 µg/mL; MIC ([6]; pH 8.2, nutrient agar): > 500 µg/mL; MIC [7]: 25 µg/mL (≈ 72.5 µM); MIC (Candida albicans (Ca)): 25 µg/mL (≈ 72.5 µM) |
| N#CC1=C(C#N)Sc2c(cnn(-c3ccc(Cl)c(Cl)c3)c2=O)S1 [F, 5,6-dihydro-6-(3,4-dichlorophenyl)-5-oxo-1,4-dithiino-(2,3-d)-pyridazine-2,3-dicarbonitrile] | > 500 | > 500 | > 500 | > 500 | > 500 | > 500 | > 500 | > 500 | 250 (≈ 659 µM) | > 500 | > 500 | 100 (≈ 264 µM) | 250 (≈ 659 µM) | 100 (≈ 264 µM) | 500 (≈ 1320 µM) | 250 (≈ 659 µM) | > 500 | > 500 | > 500 | 500 (≈ 1320 µM) | MIC (Aspergillus niger (An)): 250 µg/mL (≈ 659 µM); MIC ([6]; pH 6.8, nutrient agar): > 500 µg/mL; MIC ([6]; pH 8.2, nutrient agar): > 500 µg/mL; MIC [7]: 100 µg/mL (≈ 264 µM); MIC (Candida albicans (Ca)): 250 µg/mL (≈ 659 µM) |
